Reference: article PMC7731220, “Pharmacophore Modeling and 3D-QSAR Study of Indole and Isatin Derivatives as Antiamyloidogenic Agents Targeting Alzheimer’s Disease” (Molecules, 2020)
Like-named read-outs stand apart in the source and are kept apart here.

Columns and labels:
[1] = target: T1, Aβ40 (Homo sapiens, UniProt P05067); experiment: Inhibition of Aβ40 self-aggregation (thioflavin T fluorescence, 2% HFIP); details: for inhibition at 100 µM: read-out: Aβ40 Aggregation Inhibition % at 100 μM
Method: All the newly prepared compounds were tested in a routine in vitro assay of inhibition of Aβ40 self-aggregation [25].
(§1) All assays were performed in 96-well plates (Greiner Bio-One, Kremsmünster, Austria) using an Infinite M1000 Pro plate reader (Tecan, Cernusco s.N., Italy). Inhibition data were obtained as mean ± SD (for single concentration points) or mean ± SEM from three independent experiments (for IC50s), using Prism (GraphPad Prism version 5.00 for Windows, GraphPad Software, San Diego, CA, USA).
Assay of aggregation of Aβ40 (EzBiolab, Carmel, IN, USA) was performed as described [25], using 2% of 1,1,1,3,3,3-hexafluoro-2-propanol as aggregation enhancer and spectrofluorimetric detection of thioflavin T fluorescence as the probe of amyloid aggregation.

[2] = target: T2, tau protein (Homo sapiens, UniProt P10636); experiment: Tau aggregation inhibition assay in bacterial cells (thioflavin S fluorescence); format: cell-based, Escherichia coli BL21 (DE3); details: for inhibition at 10 µM: cell-based assay
T2 construct: inclusions bodies (IBs) formed by tau full-length protein in bacteria; expressed in transfected cells; host or cells: Escherichia coli BL21 (DE3), plasmids pTARA and pRKT42
Text: The deposition of aggregates of hyperphosphorylated tau protein constitutes the intracellular neurofibrillary tangles, a major histological evidence of AD. The role of tau hyperphosphorylation and aggregation in AD has established both of them as a target for therapeutic intervention, although only N,N,N′,N′-tetramethyl-10H-phenothiazine-3,7-diaminium (TRX0237, leucomethyl-thioninium), the reduced form of methylene blue dye, acting as an inhibitor of tau aggregation, has reached the clinical phase III [26]. In recent years, some of us developed an efficient cell-based assay of tau aggregation, a simple and inexpensive method that provides a straightforward assay to evaluate the putative anti-aggregation capacity of small molecules. This method relies on the use of bacteria overexpressing amyloid-prone proteins to monitor the amyloid aggregation, thus constituting a physiologically relevant model. In particular, it exploits amyloid properties of the inclusions bodies (IBs) formed by tau full-length protein in bacteria stained by thioflavin S (ThS), a specific amyloid dye, to address the bacterial amyloid aggregation and the effect of anti-amyloid compounds in this polymerization process.
Escherichia coli competent cells BL21 (DE3) were transformed with pTARA containing the RNA-polymerase gen of T7 phage (T7RP) under the control of the promoter PBAD and pRKT42 vector encoding four repeats of tau protein in two inserts. Because of the addition of the initiation codon ATG in front of gene, the over-expressed protein contains an additional methionine residue at its N terminus. Tau anti-aggregating activities of the target compounds were assessed in E. coli cells, as previously described. M9 minimal medium (10 mL) containing 0.5% of glucose, 100 μg/mL of ampicillin and 12.5 μg/mL of chloramphenicol was inoculated with a colony of BL21 (DE3) cells bearing the plasmids. To fresh M9 minimal medium containing 0.5% of glucose, 50 μg/mL of ampicillin, 12.5 μg/mL of chloramphenicol, and 250 µM of ThS, the volume of overnight culture necessary to get a 1:500 dilution was added. The cultures were grown at 37 °C and 250 rpm overnight until cell density reached OD600 = 0.6. A volume of 980 μL of the cultures was transferred into 1.5 mL Eppendorf tubes that contained 10 μL of a solution of the target compound in DMSO and 10 μL of arabinose at 25%, leading to a final inhibitor concentration of 10 μM. The resulting cultures were grown at 37 °C and 1400 rpm with a Thermomixer (Eppendorf, Hamburg, Germany) overnight. The same amount of DMSO without the target compound was added to the sample as a negative control (maximal amount of tau), whereas non-induced samples (in the absence of arabinose) were prepared as positive controls (absence of tau), and to assess the potential intrinsic toxicity of the target compounds. In addition, the absorbance at 600 nm of these samples was assessed to confirm the correct bacterial growth, discarding potential intrinsic toxicity of compounds. To determine the IC50 values, the same protocol was followed but only modifying the initial concentration of compounds. In order to use different final concentrations of compound, we performed a dilutions banc from a stock solution of 100 mM in […].
ThS fluorescence and absorbance were tracked using a DTX 800 plate reader Multimode Detector equipped with a Multimode Analysis Software (Beckman-Coulter, Indianapolis, IN, USA). Filters of 430/35 and 485/20 nm were used for the excitation and emission wavelengths, respectively. 535/25 nm filters were also used for the absorbance determination. It should be stressed that ThS fluorescence normalization was carried out considering as 100% the ThS fluorescence of the bacterial cells expressing tau in the absence of compounds and 0% the ThS fluorescence of the bacterial cells non-expressing tau.

[3] = target: T3, human recombinant AChE (Homo sapiens, UniProt P22303); experiment: biochemical; details: for inhibition at 10 µM: read-out: hAChE % Inhib. at 10 μM; for IC50: read-out: hAChE IC50
T3 construct: purchased Sigma Aldrich
Method: as §1

[4] = target: T4, human recombinant monoamine oxidase B (Homo sapiens, UniProt P27338); experiment: Inhibition of monoamine oxidase B (kynuramine); format: biochemical; details: for IC50: read-out: hMAO B IC50; for inhibition at 10 µM: read-out: hMAO B % Inhib. at 10 μM
T4 construct: purchased Sigma Aldrich; host or cells: baculovirus infected insect cells (microsomes)
T4 sequence (P27338 1-520): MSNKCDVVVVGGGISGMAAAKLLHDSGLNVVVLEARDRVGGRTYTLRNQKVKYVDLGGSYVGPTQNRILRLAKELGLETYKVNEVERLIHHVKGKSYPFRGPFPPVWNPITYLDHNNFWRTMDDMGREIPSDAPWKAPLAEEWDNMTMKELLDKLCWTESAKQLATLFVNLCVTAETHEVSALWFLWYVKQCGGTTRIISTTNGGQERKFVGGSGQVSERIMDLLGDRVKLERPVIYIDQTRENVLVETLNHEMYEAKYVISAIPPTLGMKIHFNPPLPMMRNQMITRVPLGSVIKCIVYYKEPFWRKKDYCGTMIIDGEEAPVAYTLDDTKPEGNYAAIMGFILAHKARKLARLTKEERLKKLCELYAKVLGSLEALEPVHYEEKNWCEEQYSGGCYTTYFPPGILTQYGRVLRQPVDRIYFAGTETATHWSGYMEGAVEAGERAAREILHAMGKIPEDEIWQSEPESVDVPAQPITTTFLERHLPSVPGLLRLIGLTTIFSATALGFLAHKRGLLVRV
Method: as §1
(§2) Inhibition of human recombinant monoamine oxidases A (250 U/mg) and B (59 U/mg; microsomes from baculovirus infected insect cells; Sigma Aldrich) was determined as already described [48], measuring the fluorescence of 4-hydroxyquinoline produced by the oxidative deamination of substrate kynuramine.

[5] = target: T5, human recombinant monoamine oxidase A (Homo sapiens, UniProt P21397); experiment: Inhibition of monoamine oxidase A (kynuramine); format: biochemical; details: for IC50: read-out: hMAO A IC50; for inhibition at 10 µM: read-out: hMAO A % Inhib. at 10 μM
T5 construct: purchased Sigma Aldrich; host or cells: baculovirus infected insect cells (microsomes)
T5 sequence (P21397 1-527): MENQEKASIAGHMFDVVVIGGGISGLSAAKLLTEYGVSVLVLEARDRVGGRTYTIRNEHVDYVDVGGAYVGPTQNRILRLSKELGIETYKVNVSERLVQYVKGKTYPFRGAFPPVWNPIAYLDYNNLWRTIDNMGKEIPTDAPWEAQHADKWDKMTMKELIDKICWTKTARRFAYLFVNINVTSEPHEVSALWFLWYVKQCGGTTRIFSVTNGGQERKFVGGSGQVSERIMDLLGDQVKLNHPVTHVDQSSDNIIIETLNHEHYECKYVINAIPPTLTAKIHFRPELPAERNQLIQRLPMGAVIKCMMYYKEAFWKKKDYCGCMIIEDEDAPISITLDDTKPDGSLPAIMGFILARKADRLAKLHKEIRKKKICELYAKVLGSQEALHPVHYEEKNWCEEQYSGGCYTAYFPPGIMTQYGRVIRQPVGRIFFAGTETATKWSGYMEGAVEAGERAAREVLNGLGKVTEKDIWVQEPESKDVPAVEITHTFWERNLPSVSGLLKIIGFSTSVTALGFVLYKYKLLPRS
Method: as §1, §2

[6] = target: T1, Aβ40; details: cited from earlier work

T1 sequence (P05067 672-711 limits assumed): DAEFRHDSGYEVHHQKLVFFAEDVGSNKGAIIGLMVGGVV
T3 sequence (P22303 32-614): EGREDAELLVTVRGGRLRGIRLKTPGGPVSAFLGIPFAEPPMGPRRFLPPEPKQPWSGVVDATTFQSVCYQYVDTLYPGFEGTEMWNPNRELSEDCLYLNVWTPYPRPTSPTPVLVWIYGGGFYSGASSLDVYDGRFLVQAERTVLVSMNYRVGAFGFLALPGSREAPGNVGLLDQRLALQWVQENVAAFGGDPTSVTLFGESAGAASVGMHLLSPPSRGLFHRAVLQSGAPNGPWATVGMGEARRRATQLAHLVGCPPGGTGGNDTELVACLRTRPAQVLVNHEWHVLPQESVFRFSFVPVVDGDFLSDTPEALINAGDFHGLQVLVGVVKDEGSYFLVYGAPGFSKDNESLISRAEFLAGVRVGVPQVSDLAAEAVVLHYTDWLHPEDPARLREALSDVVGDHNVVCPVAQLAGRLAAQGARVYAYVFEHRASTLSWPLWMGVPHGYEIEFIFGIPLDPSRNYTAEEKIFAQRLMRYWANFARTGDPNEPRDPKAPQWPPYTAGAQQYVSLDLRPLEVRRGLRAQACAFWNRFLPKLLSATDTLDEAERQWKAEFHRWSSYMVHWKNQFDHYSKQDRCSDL
T2 sequence (P10636 other isoform, or with tags, fused parts or gaps): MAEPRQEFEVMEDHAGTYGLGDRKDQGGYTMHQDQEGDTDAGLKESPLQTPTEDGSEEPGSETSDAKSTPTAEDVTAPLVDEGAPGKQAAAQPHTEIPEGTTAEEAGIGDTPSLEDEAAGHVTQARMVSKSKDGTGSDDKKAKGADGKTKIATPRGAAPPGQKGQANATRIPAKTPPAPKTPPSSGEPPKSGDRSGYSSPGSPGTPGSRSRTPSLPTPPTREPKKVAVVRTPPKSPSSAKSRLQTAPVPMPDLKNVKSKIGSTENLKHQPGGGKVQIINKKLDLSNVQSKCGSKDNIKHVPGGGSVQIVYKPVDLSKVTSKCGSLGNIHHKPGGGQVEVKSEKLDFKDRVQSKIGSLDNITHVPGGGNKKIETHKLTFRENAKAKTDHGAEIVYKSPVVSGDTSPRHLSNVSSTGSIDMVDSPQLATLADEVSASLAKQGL

Compound	inhibition at 100 µM [1] [%]	inhibition at 10 µM [2] [%]	IC50 [1] [µM]	inhibition at 10 µM [3] [%]	IC50 [4] [µM]	inhibition at 10 µM [5] [%]	other results
N/N=C1\C(=O)Nc2ccc([N+](=O)[O-])cc21 [Compound 3, (Z)-3-Hydrazineylidene-5-nitroindolin-2-one]	11 ± 3	–	–	–	–	–	melting point: 217 to 219 °C
O=C1Nc2ccccc2C1=NN=C1C(=O)Nc2ccccc21 [Compound 4]	31 ± 3	17 ± 2	–	–	–	–	–
O=C1Nc2ccccc2C1=NNc1ccccc1 [Compound 5, isatin 3-phenylhydrazone]	–	–	22 ± 2	37 ± 1	3.6 ± 0.7	–	selectivity for MAO A over MAO B ([5]; MAO A over MAO B): 7 fold; IC50 [5]: 0.52 ± 0.04 µM; IC50 [2]: 4.6 ± 0.7 µM
O=C1Nc2ccccc2C1=NNc1cccc(OCc2ccccc2)c1 [Compound 6, 3-(2-(3-(Benzyloxy)phenyl)hydrazineylidene)indolin-2-one]	45 ± 6	14 ± 2	–	–	–	23 ± 5	IC50 [3]: 4.2 ± 0.8 µM; inhibition at 10 µM [4]: 22 ± 4%
CN1C(=O)C(=NNc2cccc(OCc3ccccc3)c2)c2ccccc21 [Compound 7, 3-(2-(3-(Benzyloxy)phenyl)hydrazineylidene)-1-methylindolin-2-one]	–	19 ± 2	2 ± 0.3	48 ± 3	–	29 ± 3	inhibition at 10 µM [4]: 41 ± 1%
O=C1Nc2ccccc2C1=NNc1ccc(OCc2ccccc2)cc1 [Compound 8, 3-(2-(4-(Benzyloxy)phenyl)hydrazineylidene)indolin-2-one]	69 ± 3	35 ± 2	–	–	–	8 ± 3	IC50 [3]: 3.9 ± 0.5 µM; inhibition at 10 µM [4]: 36 ± 4%
CN1C(=O)C(=NNc2ccc(OCc3ccccc3)cc2)c2ccccc21 [Compound 9, 3-(2-(4-(Benzyloxy)phenyl)hydrazineylidene)-1-methylindolin-2-one]	–	20 ± 2	0.95 ± 0.04	48 ± 2	4 ± 0.4	15 ± 3	–
COc1ccc2c(c1)C(=O)C(=O)N2CCc1ccccc1 [Compound 11]	–	–	15 ± 1	47 ± 5	2.7 ± 0.3	20 ± 4	–
COc1ccc2c(c1)C(=O)C(=O)N2CN1CCOCC1 [Compound 13, 5-Methoxy-1-(morpholinomethyl)indoline-2,3-dione]	23 ± 5	–	–	26 ± 1	4.4 ± 0.1	7 ± 2	–
COc1ccc2c(c1)C(=NNc1ccc(C(C)C)cc1)C(=O)N2CCN(C)C [Compound 18, 1-(2-(Dimethylamino)ethyl)-3-(2-(4-isopropylphenyl)hydrazineylidene)-5-methoxyindolin-2-one]	–	–	1.3 ± 0.1	23 ± 1	–	31 ± 4	inhibition at 10 µM [4]: 47 ± 2%
CC(C)c1ccc(NN=C2C(=O)N(Cc3ccccc3)c3ccc(O)cc32)cc1 [Compound 19, 1-Benzyl-5-hydroxy-3-(2-(4-isopropylphenyl)hydrazineylidene)indolin-2-one]	–	–	1.6 ± 0.3	31 ± 1	–	18 ± 4	inhibition at 10 µM [4]: 46 ± 5%
O=C1Nc2ccccc2C1=NNc1cccc2ccccc12 [Compound 23, 3-(2-(Naphthalen-1-yl)hydrazono)indolin-2-one]	–	–	4.8 ± 0.5	40 ± 3	5.3 ± 0.3	–	IC50 [5]: 7.1 ± 0.3 µM
COc1ccc2c(c1)C(=NNC(=O)c1ccccc1)C(=O)N2 [Compound 26, N′-(5-Methoxy-2-oxoindolin-3-ylidene)benzhydrazide]	12 ± 5	–	–	–	–	–	melting point: > 250 °C
O=C1C(=Cc2ccc(O)cc2)Nc2ccccc21 [Compound 27, 2-(4-Hydroxybenzylidene)indolin-3-one]	69 ± 1	–	–	–	–	–	melting point: > 250 °C
Clc1ccc(NN=Cc2c[nH]c3ccccc23)cc1 [Compound 32, 3-((2-(4-Chlorophenyl)hydrazono)methyl)-1H-indole]	–	–	8.4 ± 0.6	41 ± 5	0.23 ± 0.03	–	IC50 [5]: 0.34 ± 0.01 µM
COc1ccc2[nH]cc(C=NNc3ccc4ccccc4n3)c2c1 [Compound 35, 2-(2-((5-Methoxy-1H-indol-3-yl)methylene)hydrazineyl)quinoline]	–	–	12 ± 2	38 ± 2	6.5 ± 0.6	–	IC50 [5]: 3.8 ± 0.3 µM
CC(C)c1ccc(NN=C2NC(=O)c3ccccc32)cc1 [Compound 38, 3-(2-(4-Isopropylphenyl)hydrazineylidene)isoindolin-1-one]	49 ± 5	–	–	–	–	–	melting point: 186 to 187 °C
COc1ccc2[nH]cc(/C=N/NC(=O)c3ccc(F)cc3)c2c1 [Compound 45]	0	–	–	–	–	–	–
O=C1Nc2ccc([N+](=O)[O-])cc2/C1=N/Nc1ccccc1 [Compound S22]	–	15 ± 3	–	–	–	–	Aβ40 Inhibition % at 100 μM ([6]; Table 5, symbol): -^c (No inhibition at 100 μM concentration); % inhib. @ 100 µM ([6]; supplement, training set, 100 µM): -2±7%
COc1ccc2c(c1)/C(=N/Nc1ccccc1)C(=O)N2 [Compound S23]	–	–	–	–	–	–	Aβ40 Inhibition % at 100 μM ([6]; Table 5): 52%; IC50 [2]: 7.7 ± 1 µM
COc1ccc2c(c1)/C(=N/Nc1ccc(OCc3ccccc3)cc1)C(=O)N2 [Compound S34]	–	16 ± 2	–	–	–	–	Aβ40 Inhibition % at 100 μM ([6]; Table 5): 20%
COc1ccc2c(c1)/C(=N/Nc1cccc(OCc3ccccc3)c1)C(=O)N2 [Compound S35]	–	–	–	–	–	–	Aβ40 Inhibition % at 100 μM ([6]; Table 5): 44%; IC50 [2]: 10 ± 2 µM
